The values below come from patent US20250275959A1, “COMPOUNDS AND METHODS OF THEIR USE” (LEXICON PHARMACEUTICALS, INC., priority 2024, published 2025).

As usually defined, the IC50 is the concentration at which inhibition is half-maximal.

Test [1] deals with T1, hACSL5 (Homo sapiens (Human), UniProt Q9ULC5). Kind of test: Human ACSL5 coupled enzyme Amplex Red assay. Type of test: biochemical. The settings on record: read-out: hACSL5 IC50. The essentials: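 C-terminally His-tagged ACSL5 (33-683) from sf9 cells, 20 nM, was preincubated with compound in MOPS-NaOH pH 7.6 with MgCl2, peroxidase and acyl-CoA oxidase. Reactions were started with 25 μM oleate, 30 μM CoA, 1 mM ATP and 50 μM Amplex Red; fluorescence (535/590 nm) after 10 minutes at 25° C. was fitted to the Hill equation for IC50 and maximal inhibition.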
Target sequence in this assay (Q9ULC5 33-683): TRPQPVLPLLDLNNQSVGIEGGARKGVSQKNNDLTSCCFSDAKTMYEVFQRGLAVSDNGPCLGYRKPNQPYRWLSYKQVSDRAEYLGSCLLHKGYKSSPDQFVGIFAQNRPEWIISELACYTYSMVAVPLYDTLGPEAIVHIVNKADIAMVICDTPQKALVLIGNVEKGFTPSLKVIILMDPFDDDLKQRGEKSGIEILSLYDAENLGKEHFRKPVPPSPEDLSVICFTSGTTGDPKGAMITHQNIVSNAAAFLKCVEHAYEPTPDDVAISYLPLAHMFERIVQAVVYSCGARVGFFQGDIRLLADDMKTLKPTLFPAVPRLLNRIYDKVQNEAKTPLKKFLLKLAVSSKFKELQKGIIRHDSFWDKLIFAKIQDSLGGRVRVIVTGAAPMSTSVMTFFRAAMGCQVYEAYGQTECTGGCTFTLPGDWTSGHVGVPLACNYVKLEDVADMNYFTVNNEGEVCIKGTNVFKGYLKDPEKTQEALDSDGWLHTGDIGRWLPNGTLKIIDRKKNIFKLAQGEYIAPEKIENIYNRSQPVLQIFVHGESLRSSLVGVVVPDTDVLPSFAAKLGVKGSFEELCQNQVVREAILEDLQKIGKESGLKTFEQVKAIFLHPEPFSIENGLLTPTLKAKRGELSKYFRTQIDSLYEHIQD

Test [2] concerns the target T1, hACSL5. Kind of test: Cell-based assay (CBA) with B12FA in hACSL5-transfected Expi293F / FlpIn TRex293 cells. The settings on record: hACSL5-expressing cells. The essentials: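 hACSL5-expressing Expi293F or tetracycline-induced FlpIn TRex293 cells, serum- and glucose-starved 1 h, then treated 3 h with serially diluted compound plus 20 µM B12FA. After fixation, 630/520 nm emission ratio (ex 485 nm) gave % inhibition versus no-inhibitor and 10 µM compound/non-induced controls; IC50 by Hill fit.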
Target sequence in this assay (Q9ULC5 whole entry): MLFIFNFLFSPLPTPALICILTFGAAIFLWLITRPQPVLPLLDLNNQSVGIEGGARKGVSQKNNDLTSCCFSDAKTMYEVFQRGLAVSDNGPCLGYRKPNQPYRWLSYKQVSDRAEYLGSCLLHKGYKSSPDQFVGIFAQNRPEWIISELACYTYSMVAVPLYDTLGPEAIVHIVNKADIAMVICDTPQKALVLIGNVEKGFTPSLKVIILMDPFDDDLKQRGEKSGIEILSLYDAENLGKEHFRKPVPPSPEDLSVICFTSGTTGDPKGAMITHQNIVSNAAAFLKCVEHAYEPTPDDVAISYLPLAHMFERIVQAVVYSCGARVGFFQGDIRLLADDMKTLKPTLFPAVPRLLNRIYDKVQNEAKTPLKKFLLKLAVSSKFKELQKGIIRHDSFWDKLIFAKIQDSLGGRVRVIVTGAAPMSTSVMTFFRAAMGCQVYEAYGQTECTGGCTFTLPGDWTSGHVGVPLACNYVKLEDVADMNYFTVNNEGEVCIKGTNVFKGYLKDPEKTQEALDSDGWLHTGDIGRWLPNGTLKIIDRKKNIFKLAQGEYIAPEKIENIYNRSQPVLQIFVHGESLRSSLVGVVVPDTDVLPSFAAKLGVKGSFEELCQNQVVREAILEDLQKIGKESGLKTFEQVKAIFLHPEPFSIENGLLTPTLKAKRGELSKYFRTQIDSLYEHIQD

On to `CC[C@@H](Oc1ccc(C(=O)NS(=O)(=O)c2ccc(OC3CCN(CCO)CC3)cc2)c(F)c1F)c1ccc(OCC2CC2)cn1` [(R)-4-(1-(5-(cyclopropylmethoxy)pyridin-2-yl)propoxy)-2,3-difluoro-N-((4-((1-(2-hydroxyethyl)piperidin-4-yl)oxy)phenyl)sulfonyl)benzamide], for which the 50% inhibitory concentration (IC50) at hACSL5 [1] was less than 100 nM; on hACSL5 [2], 100 to 500 nM.
Turning to `CC[C@@H](Oc1ccc(C(=O)NS(=O)(=O)c2ccc(OC3CCN(CCOC)CC3)cc2)c(F)c1F)c1ccc(OCC2CC2)cn1` [(R)-4-(1-(5-(cyclopropylmethoxy)pyridin-2-yl)propoxy)-2,3-difluoro-N-((4-((1-(2-methoxyethyl)piperidin-4-yl)oxy)phenyl)sulfonyl)benzamide], the IC50 at hACSL5 [1] and against hACSL5 [2] was less than 100 nM throughout.
In the case of `CC[C@@H](Oc1ccc(C(=O)NS(=O)(=O)N2CCC(OC3CCN(CCOC)CC3)CC2)c(F)c1F)c1ccc(OCC2CC2)cn1` [(R)-4-(1-(5-(cyclopropylmethoxy)pyridin-2-yl)propoxy)-2,3-difluoro-N-((4-((1-(2-methoxyethyl)piperidin-4-yl)oxy)piperidin-1-yl)sulfonyl)benzamide], the IC50 on hACSL5 [1] and against hACSL5 [2] was less than 100 nM each time.
On to `[2H]C([2H])([2H])N1CCC(Oc2ccc(S(=O)(=O)NC(=O)c3ccc(O[C@H](CC)c4ccc(OCC5CC5)cn4)c(F)c3F)cc2)CC1` [(R)-4-(1-(5-(cyclopropylmethoxy)pyridin-2-yl)propoxy)-2,3-difluoro-N-((4-((1-(methyl-d3)piperidin-4-yl)oxy)phenyl)sulfonyl)benzamide], for which the half-maximal inhibitory concentration (IC50) on hACSL5 [1] and against hACSL5 [2] was less than 100 nM in each case.
In the case of `CC[C@@H](Oc1ccc(C(=O)NS(=O)(=O)c2ccc(OC3CCN(C(C)C)CC3)cc2)c(F)c1F)c1ccc(OCC2CC2)cn1` [(R)-4-(1-(5-(cyclopropylmethoxy)pyridin-2-yl)propoxy)-2,3-difluoro-N-((4-((1-isopropylpiperidin-4-yl)oxy)phenyl)sulfonyl)benzamide], the IC50 on hACSL5 [1] was less than 100 nM; at hACSL5 [2] it was 100 to 500 nM.
Consider `CC[C@@H](Oc1ccc(C(=O)NS(=O)(=O)c2ccc(OC3CN(C)C3)cc2)c(F)c1F)c1ccc(OCC2CC2)cn1` [(R)-4-(1-(5-(cyclopropylmethoxy)pyridin-2-yl)propoxy)-2,3-difluoro-N-((4-((1-methylazetidin-3-yl)oxy)phenyl)sulfonyl)benzamide], for which the IC50 was less than 100 nM on hACSL5 [1] and 100 to 500 nM against hACSL5 [2].
Taken in the same sequence, the figures for `CC[C@@H](Oc1ccc(C(=O)NS(=O)(=O)c2ccc(OC3CCN(C)CC3)cc2)c(F)c1F)c1ccc(OCC2CC2)cn1` [(R)-4-(1-(5-(cyclopropylmethoxy)pyridin-2-yl)propoxy)-2,3-difluoro-N-((4-((1-methylpiperidin-4-yl)oxy)phenyl)sulfonyl)benzamide] were less than 100 nM and less than 100 nM.
The like results for `CC[C@@H](Oc1ccc(C(=O)NS(=O)(=O)N2CCC(OC3CCN(C)CC3)CC2)c(F)c1F)c1ccc(OCC2CC2)cn1` [(R)-4-(1-(5-(cyclopropylmethoxy)pyridin-2-yl)propoxy)-2,3-difluoro-N-((4-((1-methylpiperidin-4-yl)oxy)piperidin-1-yl)sulfonyl)benzamide] were, in that order, less than 100 nM and 100 to 500 nM.
In the case of `CC[C@@H](Oc1ccc(C(=O)NS(=O)(=O)c2ccc(OC3CCNCC3)cc2)c(F)c1F)c1ccc(OCC2CC2)cn1` [(R)-4-(1-(5-(cyclopropylmethoxy)pyridin-2-yl)propoxy)-2,3-difluoro-N-((4-(piperidin-4-yloxy)phenyl)sulfonyl)benzamide], the IC50 on hACSL5 [1] is less than 100 nM; at hACSL5 [2] it was greater than 500 nM.
Taken in the same sequence, the figures for `CC[C@@H](Oc1ccc(C(=O)NS(=O)(=O)N2CCN(C(C)C)CC2)c(F)c1F)c1ccc(OCC2CC2)cn1` [(R)-4-(1-(5-(cyclopropylmethoxy)pyridin-2-yl)propoxy)-2,3-difluoro-N-((4-isopropylpiperazin-1-yl)sulfonyl)benzamide] were 100 to 500 nM and 100 to 500 nM.
In the case of `CC[C@@H](Oc1ccc(C(=O)NS(=O)(=O)N2CCCN(C)CC2)c(F)c1F)c1ccc(OCC2CC2)cn1` [(R)-4-(1-(5-(cyclopropylmethoxy)pyridin-2-yl)propoxy)-2,3-difluoro-N-((4-methyl-1,4-diazepan-1-yl)sulfonyl)benzamide], the IC50 on hACSL5 [1] and against hACSL5 [2] was 100 to 500 nM throughout.
With `CC[C@@H](Oc1ccc(C(=O)NS(=O)(=O)N2CCN(C)CC2)c(F)c1F)c1ccc(OCC2CC2)cn1` [(R)-4-(1-(5-(cyclopropylmethoxy)pyridin-2-yl)propoxy)-2,3-difluoro-N-((4-methylpiperazin-1-yl)sulfonyl)benzamide], the IC50 at hACSL5 [1] and at hACSL5 [2] was less than 100 nM throughout.
Regarding `CC[C@@H](Oc1ccc(C(=O)NS(=O)(=O)c2ccc(NC3CCN(C)CC3)cn2)c(F)c1F)c1ccc(OCC2CC2)cn1` [(R)-4-(1-(5-(cyclopropylmethoxy)pyridin-2-yl)propoxy)-2,3-difluoro-N-((5-((1-methylpiperidin-4-yl)amino)pyridin-2-yl)sulfonyl)benzamide], the IC50 was less than 100 nM at hACSL5 [1] and greater than 500 nM against hACSL5 [2].
Take `CC[C@@H](Oc1ccc(C(=O)NS(=O)(=O)c2ccc(OC3CCN(C)CC3)cn2)c(F)c1F)c1ccc(OCC2CC2)cn1` [(R)-4-(1-(5-(cyclopropylmethoxy)pyridin-2-yl)propoxy)-2,3-difluoro-N-((5-((1-methylpiperidin-4-yl)oxy)pyridin-2-yl)sulfonyl)benzamide]: the IC50 on hACSL5 [1] is less than 100 nM; on hACSL5 [2], greater than 500 nM.
The like results for `CC[C@@H](Oc1ccc(C(=O)NS(=O)(=O)N2CC3(CC(OCCN4CCCC4)C3)C2)c(F)c1F)c1ccc(OCC2CC2)cn1` [(R)-4-(1-(5-(cyclopropylmethoxy)pyridin-2-yl)propoxy)-2,3-difluoro-N-((6-(2-(pyrrolidin-1-yl)ethoxy)-2-azaspiro[3.3]heptan-2-yl)sulfonyl)benzamide] were, in that order, less than 100 nM and greater than 500 nM.
Taken in the same sequence, the figures for `CC[C@@H](Oc1ccc(C(=O)NS(=O)(=O)c2ccc(OCCN3CCCC3)nn2)c(F)c1F)c1ccc(OCC2CC2)cn1` [(R)-4-(1-(5-(cyclopropylmethoxy)pyridin-2-yl)propoxy)-2,3-difluoro-N-((6-(2-(pyrrolidin-1-yl)ethoxy)pyridazin-3-yl)sulfonyl)benzamide] were less than 100 nM and greater than 500 nM.
Taken in the same sequence, the figures for `CC[C@@H](Oc1ccc(C(=O)NS(=O)(=O)c2ccc(OCCN3CCCC3)nc2)c(F)c1F)c1ccc(OCC2CC2)cn1` [(R)-4-(1-(5-(cyclopropylmethoxy)pyridin-2-yl)propoxy)-2,3-difluoro-N-((6-(2-(pyrrolidin-1-yl)ethoxy)pyridin-3-yl)sulfonyl)benzamide] were less than 100 nM and 100 to 500 nM.
Consider `CC[C@@H](Oc1ccc(C(=O)NS(=O)(=O)c2ccc(NC3CCN(C(C)C)CC3)nc2)c(F)c1F)c1ccc(OCC2CC2)cn1` [(R)-4-(1-(5-(cyclopropylmethoxy)pyridin-2-yl)propoxy)-2,3-difluoro-N-((6-((1-isopropylpiperidin-4-yl)amino)pyridin-3-yl)sulfonyl)benzamide], for which the values for the IC50 at hACSL5 [1] and on hACSL5 [2] were less than 100 nM and greater than 500 nM, respectively.
For the compound `CC[C@@H](Oc1ccc(C(=O)NS(=O)(=O)c2ccc(OC3CCN(C(C)C)CC3)nc2)c(F)c1F)c1ccc(OCC2CC2)cn1` [(R)-4-(1-(5-(cyclopropylmethoxy)pyridin-2-yl)propoxy)-2,3-difluoro-N-((6-((1-isopropylpiperidin-4-yl)oxy)pyridin-3-yl)sulfonyl)benzamide], the IC50 at hACSL5 [1] is less than 100 nM; against hACSL5 [2], 100 to 500 nM.
Taken in the same sequence, the figures for `CC[C@@H](Oc1ccc(C(=O)NS(=O)(=O)c2ccc(NC3CCN(C)CC3)nc2)c(F)c1F)c1ccc(OCC2CC2)cn1` [(R)-4-(1-(5-(cyclopropylmethoxy)pyridin-2-yl)propoxy)-2,3-difluoro-N-((6-((1-methylpiperidin-4-yl)amino)pyridin-3-yl)sulfonyl)benzamide] were less than 100 nM and greater than 500 nM.
Taken in the same sequence, the figures for `CC[C@@H](Oc1ccc(C(=O)NS(=O)(=O)N2CC3(CC(OC4CCN(C)CC4)C3)C2)c(F)c1F)c1ccc(OCC2CC2)cn1` [(R)-4-(1-(5-(cyclopropylmethoxy)pyridin-2-yl)propoxy)-2,3-difluoro-N-((6-((1-methylpiperidin-4-yl)oxy)-2-azaspiro[3.3]heptan-2-yl)sulfonyl)benzamide] were 100 to 500 nM and greater than 500 nM.
Taken in the same sequence, the figures for `CC[C@@H](Oc1ccc(C(=O)NS(=O)(=O)c2ccc(OC3CCN(C)CC3)nn2)c(F)c1F)c1ccc(OCC2CC2)cn1` [(R)-4-(1-(5-(cyclopropylmethoxy)pyridin-2-yl)propoxy)-2,3-difluoro-N-((6-((1-methylpiperidin-4-yl)oxy)pyridazin-3-yl)sulfonyl)benzamide] were less than 100 nM and greater than 500 nM.
Turning to `CC[C@@H](Oc1ccc(C(=O)NS(=O)(=O)c2ccc(OC3CCN(C)CC3)nc2)c(F)c1F)c1ccc(OCC2CC2)cn1` [(R)-4-(1-(5-(cyclopropylmethoxy)pyridin-2-yl)propoxy)-2,3-difluoro-N-((6-((1-methylpiperidin-4-yl)oxy)pyridin-3-yl)sulfonyl)benzamide], the IC50 on hACSL5 [1] is less than 100 nM; against hACSL5 [2], 100 to 500 nM.
With `CC[C@@H](Oc1ccc(C(=O)NS(=O)(=O)c2ccc(NCCN3CCCC3)nc2)c(F)c1F)c1ccc(OCC2CC2)cn1` [(R)-4-(1-(5-(cyclopropylmethoxy)pyridin-2-yl)propoxy)-2,3-difluoro-N-((6-((2-(pyrrolidin-1-yl)ethyl)amino)pyridin-3-yl)sulfonyl)benzamide], the IC50 was less than 100 nM at hACSL5 [1] and greater than 500 nM on hACSL5 [2].
